Laboratory results as given in patent publication US20190330197A1, “SUBSTITUTED NAPHTHALENE DIIMIDES AND THEIR USE” (UCL Business PLC, priority 2015, published 2019).

Key:
[1] = tested on: MCF7 (breast) cells; experiment: SRB growth inhibition, MCF7; type: cell-based, human; conditions: 96 hr, SRB assay; read-out: short-term 96 hr IC50 MCF7
Description: (§1) Human cancer cell lines and the somatic human cell line WI-38 (lung fibroblast) were purchased from the American Type Culture Collection. Cell lines were maintained in appropriate medium supplemented with 10% foetal bovine serum (Invitrogen, UK), 2 mM L-glutamine (Invitrogen, Netherlands), and other components as specified by the suppliers. Cell lines were maintained at 37° C., 5% CO2 and routinely passaged. Drugs were dissolved in DMSO and filtered through 0.22 μm pore-size filter units before addition to cell line appropriate media. Cellular growth inhibition was measured using the sulforhodamine B (SRB) assay in 96 well plates. Fifty percent inhibitory concentrations (IC50) were determined by taking the mean absorbance at 540 nm for each drug concentration expressed as a percentage of the absorbance of untreated control wells.

[2] = tested on: Tloop (representing duplex DNA); experiment: FRET assay, Tloop duplex DNA; type: binding; conditions: compound at 1 μM, 60 mM potassium cacodylate buffer pH 7.4
Description: (§2) The ability of the naphthalene diimide compounds to stabilize quadruplex DNA sequences was investigated using a fluorescence resonance energy transfer (FRET) assay modified to be used as a high-throughput screen in a 96-well format. Several quadruplex sequences were studied (including the human telomeric G-quadruplex DNA sequence 5′-FAM-d(GGG[TTAGGG]3)-TAMRA-3′ and the duplex sequence 5′-FAM-d[…]-HEG-[…]-TAMRA-3′ (HEG linker: [(—CH2—CH2—O—)6.
(§3) The labelled oligonucleotides have attached to them the donor fluorophore FAM: 6-carboxyfluorescein and the acceptor fluorophore TAMRA: 6-carboxytetramethylrhodamine. The FRET probe sequences were diluted from stock to the correct concentration (400 nM) in a 60 mM potassium cacodylate buffer (pH 7.4) and then annealed by heating to 85° C. for 10 min, followed by cooling to room temperature in the heating block. The compound was stored as a 10 mM stock solution in DMSO; final solutions (at 2× concentration) were prepared using 10 mM HCl in the initial 1:10 dilution, after which 60 mM potassium cacodylate buffer (pH 7.4) was used in all subsequent steps. The maximum HCl concentration in the reaction volume (at a ligand concentration of 20 μM) is thus 200 μM, well within the range of the buffer used. Relevant controls were also performed to check for interference with the assay. 96-Well plates (MJ Research, Waltham, Mass.) were prepared by aliquoting 50 μl of the annealed DNA into each well, followed by 50 μl of the compound solutions. Measurements were made on a DNA Engine Opticon (MJ Research) with excitation at 450-495 nm and detection at 515-545 nm. Fluorescence readings were taken at intervals of 0.5° C. in the range 30-100° C., with a constant temperature being maintained for 30 s prior to each reading to ensure a stable value. Final analysis of the data was carried out using a script written in the program Origin 7.0 (OriginLab Corp., Northampton, Mass.). The advanced curve-fitting function in Origin 7.0 was used for calculation of ΔTm values. All determinations were performed in triplicate or better. Esds in ΔTm are ±0.1° C.

[3] = tested on: human telomeric (F21T) G-quadruplex DNA; experiment: FRET quadruplex stabilisation assay, F21T; type: binding; conditions: compound at 1 μM, 60 mM potassium cacodylate buffer pH 7.4
Description: as §2, §3

[4] = tested on: Kras32 sequence from the promoter region of the kras gene; experiment: FRET quadruplex stabilisation assay, Kras32; type: binding; conditions: compound at 1 μM, 60 mM potassium cacodylate buffer pH 7.4
Description: as §2, §3

[5] = tested on: ALT (Alternative Lengthening of Telomeres) cell line; experiment: SRB growth inhibition, ALT; type: cell-based, human; conditions: 96 hr, SRB assay; read-out: short-term 96 hr IC50 ALT
Description: as §1

[6] = tested on: Bcl-2 sequence from the promoter region of the bcl-2 gene; experiment: FRET quadruplex stabilisation assay, Bcl-2; type: binding; conditions: compound at 1 μM, 60 mM potassium cacodylate buffer pH 7.4
Description: as §2, §3

[7] = tested on: WI38 (lung fibroblast) cells; experiment: SRB growth inhibition, WI38; type: cell-based, human; conditions: 96 hr, SRB assay; read-out: short-term 96 hr IC50 WI38
Description: as §1

[8] = tested on: Mia-PaCa2 (pancreatic cancer) cells; experiment: SRB growth inhibition, MiaPaCa2; type: cell-based, human; conditions: 96 hr, SRB assay; read-out: short-term 96 hr IC50 MiaPaCa2
Description: as §1

[9] = tested on: Kras21 sequence from the promoter region of the kras gene; experiment: FRET quadruplex stabilisation assay, Kras21; type: binding; conditions: compound at 1 μM, 60 mM potassium cacodylate buffer pH 7.4
Description: as §2, §3

[10] = tested on: A549 (lung cancer) cells; experiment: SRB growth inhibition, A549; type: cell-based, human; conditions: 96 hr, SRB assay; read-out: short-term 96 hr IC50 A549
Description: as §1

[11] = tested on: Hsp90B sequence from the HSP90 promoter; experiment: FRET quadruplex stabilisation assay, Hsp90B; type: binding; conditions: compound at 1 μM, 60 mM potassium cacodylate buffer pH 7.4
Description: as §2, §3

[12] = tested on: Hsp90A sequence from the HSP90 promoter; experiment: FRET quadruplex stabilisation assay, Hsp90A; type: binding; conditions: compound at 1 μM, 60 mM potassium cacodylate buffer pH 7.4
Description: as §2, §3

[13] = tested on: Panc1 (pancreatic cancer) cells; experiment: SRB growth inhibition, Panc1; type: cell-based, human; conditions: 96 hr, SRB assay; read-out: short-term 96 hr IC50 Panc1
Description: as §1

Compound | IC50 [1] | ΔTm Tloop [2] | ΔTm F21T [3] | ΔTm Kras32 [4] | IC50 [5] | ΔTm Bcl-2 [6] | IC50 [7] | IC50 [8] | ΔTm Kras21 [9] | IC50 [10] | ΔTm Hsp90B [11] | ΔTm Hsp90A [12] | IC50 [13]
O=C1c2ccc3c4c(c(NCCCCN5CCCC5)cc(c24)C(=O)N1CCCN1CCOCC1)C(=O)N(CCCN1CCOCC1)C3=O [Compound 4e, 2,7-bis(3-morpholinopropyl)-4-((4-(pyrrolidin-1-yl)butyl)amino)benzo[Imn][3,8]phenanthroline-1,3,6,8(2H,7H)-tetraone] | 0.222 µM | 0.2 °C | 15.9 °C | 6.6 °C | 0.089 µM | 16.1 °C | 1.22 µM | 0.036 µM | 11.7 °C | 0.026 µM | 16.9 °C | 20.6 °C | 0.033 µM
O=C1c2ccc3c4c(c(NCC5CCCO5)cc(c24)C(=O)N1CCCN1CCOCC1)C(=O)N(CCCN1CCOCC1)C3=O (stereo not shown) [Compound 4h, 4-((tetrahydrofurylmethyl)amino)-2,7-bis(3-morpholinopropyl) benzo[Imn][3,8]phenanthroline-1,3,6,8(2H,7H)-tetraone] | 1.03 µM | 0 °C | 1.4 °C | 1.2 °C | 0.71 µM | 4.2 °C | 1.88 µM | 0.139 µM | 3.4 °C | 0.146 µM | 6.8 °C | 3.9 °C | 0.808 µM
O=C1c2ccc3c4c(c(NCCc5ccc(O)cc5)cc(c24)C(=O)N1CCCN1CCOCC1)C(=O)N(CCCN1CCOCC1)C3=O [Compound 4j, 4-((4-hydroxyphenethyl)amino)-2,7-bis(3-morpholinopropyl)benzo[Imn][3,8]phenanthroline-1,3,6,8(2H,7H)-tetraone] | 1.54 µM | 0.1 °C | 9 °C | 3.0 °C | 0.451 µM | 10.0 °C | 1.65 µM | 0.059 µM | 6.1 °C | 0.092 µM | 13.8 °C | 15.7 °C | 0.163 µM
CN1CCN(CCCNc2cc3c4c(ccc5c4c2C(=O)N(CCCN2CCOCC2)C5=O)C(=O)N(CCCN2CCOCC2)C3=O)CC1 [Compound 4a, 4-((3-(4-methylpiperazin-1-yl)propyl)amino)-2,7-bis(3-morpholinopropyl)benzo[Imn][3,8]phenanthroline-1,3,6,8(2H,7H)-tetraone] | 0.357 µM | 0.8 °C | 14.3 °C | 6.1 °C | 0.224 µM | 15.8 °C | 1.83 µM | 0.059 µM | 9.8 °C | 0.067 µM | 16.5 °C | 19.8 °C | 0.045 µM
CN1CCN(CCCNc2cc3c4c(c(NCCCN5CCN(C)CC5)cc5c4c2C(=O)N(CCCN2CCOCC2)C5=O)C(=O)N(CCCN2CCOCC2)C3=O)CC1 [MM41, 4,9-bis((3-(4-methylpiperazine-1-yl)-propyl)amino)-2,7-bis(3-morpholinopropyl)benzo[Imn][3,8]phenanthroline-1,3,6,8(2H,7H)-tetraone, reference compound] | 0.07 µM | 4.9 °C | 26.6 °C | 19.8 °C | 0.063 µM | 26.4 °C | 0.23 µM | 0.011 µM | 22.5 °C | 0.019 µM | 28.6 °C | 33.1 °C | 0.003 µM
O=C1c2ccc3c4c(c(NCCN5CCOCC5)cc(c24)C(=O)N1CCCN1CCOCC1)C(=O)N(CCCN1CCOCC1)C3=O [Compound 4g, 4-((2-morpholinoethyl)amino)-2,7-bis(3-morpholinopropyl)benzo[Imn][3,8]phenanthroline-1,3,6,8(2H,7H)-tetraone] | > 25 µM | 1.5 °C | 6.0 °C | 1.5 °C | 10.9 µM | 5.8 °C | 17.7 µM | 0.206 µM | 2.4 °C | 2.18 µM | 9.4 °C | 11.0 °C | 0.22 µM
O=C1c2ccc3c4c(c(NCCN5CCCCC5)cc(c24)C(=O)N1CCCN1CCOCC1)C(=O)N(CCCN1CCOCC1)C3=O [Compound 4f, 2,7-bis(3-morpholinopropyl)-4-((2-(piperidin-1-yl)ethyl)amino)benzo[Imn][3,8]phenanthroline-1,3,6,8(2H,7H)-tetraone] | 1.11 µM | 0.6 °C | 9.8 °C | 2.2 °C | 0.535 µM | 5.9 °C | 5.33 µM | 0.108 µM | 4.8 °C | 0.198 µM | 8.7 °C | 9.1 °C | 0.084 µM
CN1CCN(CCNc2cc3c4c(ccc5c4c2C(=O)N(CCCN2CCOCC2)C5=O)C(=O)N(CCCN2CCOCC2)C3=O)CC1 [Compound 4b, 4-((2-(4-methylpiperazin-1-yl)ethyl)amino)-2,7-bis(3-morpholinopropyl)benzo[Imn][3,8]phenanthroline-1,3,6,8(2H,7H)-tetraone] | 0.316 µM | 0.4 °C | 12.3 °C | 6.1 °C | 0.085 µM | 15.1 °C | 1.49 µM | 0.048 µM | 11.0 °C | 0.086 µM | 15.0 °C | 18.1 °C | 0.046 µM
CCN(CC)CCNc1cc2c3c(ccc4c3c1C(=O)N(CCCN1CCOCC1)C4=O)C(=O)N(CCCN1CCOCC1)C2=O [Compound 4i, 4-((2-(diethylamino)ethyl)amino)-2,7-bis(3-morpholinopropyl)benzo[Imn][3,8]phenanthroline-1,3,6,8(2H,7H)-tetraone] | 3.33 µM | 0 °C | <2 °C | 0.2 °C | 2.67 µM | 2.4 °C | 5.53 µM | 1.08 µM | 0.7 °C | 0.825 µM | 4.5 °C | 2.7 °C | 0.909 µM
O=C1c2ccc3c4c(c(NCCc5ccccn5)cc(c24)C(=O)N1CCCN1CCOCC1)C(=O)N(CCCN1CCOCC1)C3=O [Compound 4d, 2,7-bis(3-morpholinopropyl)-4-((2-(pyridin-2-yl)ethyl)amino)benzo[Imn][3,8]phenanthroline-1,3,6,8(2H,7H)-tetraone] | 1.07 µM | 0 °C | <2 °C | 1.5 °C | 1.29 µM | 2.8 °C | 2.24 µM | 0.22 µM | 3.0 °C | 0.13 µM | <2 °C | 2.5 °C | 0.34 µM
